Measured values as given in patent US8633186B2, “Modulation of chemosensory receptors and ligands associated therewith” (Senomyx Inc., priority 2007, dated 2014).

Columns and labels:
[1] = test system: human panelists (which sample is sweeter); assay: Sweet flavor and sweet flavor enhancement, human panelists, paired comparison test; format: in vivo
Description: Test samples containing experimental compounds are presented in pairs to the panelist and they are asked to determine which of the sample is sweeter. A group of 10-16 or more panelists participated in each test. Subjects refrained from eating or drinking (except water) for at least 1 hour prior to the test. Subjects rinsed with water several times to clean the mouth.
All samples are prepared with ethanol to ensure dispersion of the compound in solution. This includes samples without compound; all solutions are balanced for 0.1% ethanol.
Samples are also prepared with low sodium buffer (pH 7.1) in place of water. Buffer contains 0.952 g of KCl, 5.444 g of Na2HPO4, and 0.952 g of KH2PO4 in 40 L of DIUF water. Sample volumes are usually 20 ml.
In one paired comparison test, the panelist is presented with two different samples and asked to identify the sample which is sweeter. The samples within a paired comparison test are presented in a randomized, counterbalanced order. Panelists have up to a 1 minute delay between taste tests to clear the mouth of any tastes.
Binomial probability tables are used to determine the probability of the correct number of responses occurring for each test at alpha=0.05.

[2] = test system: human panelists (perceived sweetness intensity); assay: Sweet flavor and sweet flavor enhancement, human panelists, scaling test; format: in vivo; conditions: for Average sweetness score (line scale 0 to 15): Table 29; for Average Sweetness: Table 36, n = 13
Source text: Test samples containing experimental compounds were compared to a dose-response curve for perceived sweetness intensity of sweeteners (such as, for example, sucralose, sucrose, fructose and other sweeteners) concentrations to determine equivalent sweetness intensity.
A group of eight or more panelists tasted solutions including sweeteners at various concentrations, as well as the experimental compound both with and without added sweetener. Panelists then rated sweetness intensity of all samples on a structured horizontal line scale, anchored from 0 to 15, where 0 equals no sweetness and 15 equals equivalent sweetness to a 15% sucrose sample. Scores for sweetness intensity were averaged across panelists. Then using the average scores and/or equation of the line for the sweetener dose-response curve, equivalent sweetness concentrations were determined for the samples containing experimental compounds.
Subjects had been previously familiarized with the key attribute taste and were trained to use the 0 to 15 point line scale. Subjects refrained from eating or drinking (except water) for at least 1 hour prior to the test. Subjects ate a cracker and rinsed with water several times to clean the mouth.
Sweetener solutions are provided at a wide range of concentrations such as 100 ppm, 200 ppm, 300 ppm, 400 ppm, and 500 ppm for sucralose, or between 0% and 12% for sucrose or fructose, in order to create a dose-response curve. Samples containing experimental compound were prepared both alone and in a 100 ppm sucralose solution or a 6% sucrose or fructose solution. All samples were made up in low sodium buffer pH 7.1. In order to aid dispersion, solutions can be made up in 0.1% ethanol.
The solutions were dispensed in 20 ml volumes into 1 oz. sample cups and served to the subjects at room temperature. All samples were presented in randomized counterbalanced order to reduce response bias. Further, two sessions of testing may be used to check panel precision.
Subjects tasted each sample individually and rate sweetness intensity on the line scale prior to tasting the next sample. All samples were expectorated. Subjects may retaste the samples but can only use the volume of sample given. Subjects must rinse with water between samples. Eating an unsalted cracker between samples may be required depending on the samples tasted.
The scores for each sample were averaged across subjects and standard error was calculated. The dose-response curve was plotted graphically, and this may be used to ensure the panel is rating accurately; i.e., increasing the concentration of sucralose should correspond to increased average scores for sweetness. A 2-way ANOVA (factors being samples and panelists) and multiple comparison tests (such as Tukey's Honestly Significant Difference test) can be used to determine differences among samples and/or panelists. A 3-way ANOVA, with sessions as the third factor, can be used to determine if there is any difference in the ratings between sessions.

[3] = Table 35, 6% Fructose alone vs 6% Fructose + 100 μM C20, of n = 19

Row | Structure (SMILES) | melting point | other results
1 | Nc1nc(=O)[nH]c2sc3c(c12)CCOC3 [Example 146, 4-Amino-5,6-(5′,7′-dihydro-4′H-[2′,3′-c]pyrano)thieno[2,3-d]-pyrimidine-2(1H)-one] | > 260 °C | 
2 | CCCNC(=O)C(C)(C)COc1cccc2c1C(N)=NS(=O)(=O)N2 [Example 215, 3-(4-Amino-2,2-dioxide-1H-benzo[c][1,2,6]thiadiazin-5-yloxy)-2′,2′-dimethyl-N-propylpropanamide] | 225 to 226 °C | 
3 | C/C=C/c1cccc2c1C(N)=NS(=O)(=O)N2 [Example 130, 4-Amino-5-((E)-prop-1-enyl)-1H-benzo[c][1,2,3]thiadiazine-2,2-dioxide] | > 260 °C | 
4 | NC1=NS(=O)(=O)Nc2cccc(OC3CCCC3)c21 [Example 169, 4-Amino-5-(cyclopentoxy)-1H-benzo[c][1,2,6]thiadiazine-2,2-dioxide] | > 260 °C | 
5 | CC(C)=Cc1cccc2c1C(N)=NS(=O)(=O)N2 [Example 129, 4-Amino-5-(2-methylprop-1-enyl)-1H-benzo[c][1,2,3]thiadiazine-2,2-dioxide] | > 260 °C | 
6 | N#Cc1c(N)c2ccccc2[nH]c1=O [Example 71, 4-Amino-2-oxo-1,2-dihydroquinoline-3-carbonitrile] | > 250 °C | 
7 | Cc1sc2[nH]c(=O)nc(N)c2c1C.Cl | > 260 °C | 
8 | NC1=NS(=O)(=O)Nc2cccc(OCC3CC3)c21 [Example 186, (S)-4-Amino-5-(cyclopropylmethoxy)-1H-benzo[c][1,2,6]thiadiazine-2,2-dioxide] | 246 to 247 °C | 
9 | O=C(CO)[C@@H](O)[C@H](O)[C@H](O)CO [Fructose, fructose] |  | Sample selected as more sweet by panelists, Total ([1]; Table 33, 6% Fructose alone vs 6% Fructose + 100 μM compound, of n = 26): 6; Sample selected as more sweet by panelists, Total ([1]; Table 34, 6% Fructose alone vs 6% Fructose + 100 μM C19, of n = 24): 6; Sample selected as more sweet by panelists, Test 1 [1, 3]: 0; Sample selected as more sweet by panelists, Total [1, 3]: 0; Sample selected as more sweet by panelists, Test 1 ([1]; Table 37, 6% Fructose alone vs 6% fructose + 25 μM C21, of n = 25): 5; Sample selected as more sweet by panelists, Test 1 ([1]; Table 38, 7% Fructose alone vs 6% fructose + 25 μM C21, of n = 25): 13; Average sweetness score (line scale 0 to 15) ([2]; 6% fructose alone): 6.9; Average sweetness score (line scale 0 to 15) ([2]; 8% fructose alone): 8.6; Average sweetness score (line scale 0 to 15) ([2]; 9% fructose alone): 9.3; Average sweetness score (line scale 0 to 15) ([2]; 10% fructose alone): 9.5; Average Sweetness ([2]; 2% Fructose alone): 2.3; Average Sweetness ([2]; 4% Fructose alone): 4.2; Average Sweetness ([2]; 6% Fructose alone): 5.9
10 | NC1=NS(=O)(=O)Nc2cccc(OC3CCCCC3)c21 [Example 168, 4-Amino-5-(cyclohexyloxy)-1H-benzo[c][1,2,6]thiadiazine-2,2-dioxide] | 215 to 216 °C | 
11 | Nc1nc(=O)[nH]c2sc3c(c12)CCOC3 [Compound 568] |  | Sample selected as more sweet by panelists, Total ([1]; Table 33, 6% Fructose + 100 μM compound vs 6% Fructose, of n = 26 (13 panelists × 2 reps)): 20
12 | CC(C)(COc1cccc2c1C(N)=NS(=O)(=O)N2)NC(=O)c1ccccc1 [Example 216, N-(1-(4-amino-2,2-dioxide-1H-benzo[c][,6]thiadiazin-5-yloxy)-2′-methylpropan-2′-yl)benzamide] | 235 to 236 °C | 
13 | Cc1cccc2[nH]c(=S)nc(N)c12 [Example 3, 4-Amino-5-methylquinazoline-2(1H)-thione] | > 250 °C | 
14 | Cc1sc2[nH]c(=S)nc(N)c2c1C [Example 1, 4-Amino-5,6-dimethylthieno[2,3-d]pyrimidine-2(1H)-thione] | > 260 °C | 
15 | Nc1c(C(=O)O)c(=O)[nH]c2ccccc12 [Example 66, 4-Amino-2-oxo-1,2-dihydroquinoline-3-carboxylic acid] | > 250 °C | 
16 | Nc1cc(=O)[nH]c2ccccc12 [Example 65, 4-Aminoquinolin-2(1H)-one] | > 250 °C | 
